{"source": "patent US9086390B2", "about": "“Dabigatran etexilate and related substances, processes and compositions, and use of the substances as reference standards and markers” (Medichem, S.A., priority 2011, dated 2015)", "note": "Structures can show the parent of a compound that is named as a salt.", "data": [{"assay": "Accelerated stability study of dabigatran etexilate mesylate (impurity contents by HPLC method 1)", "assay_type": "physicochemical", "settings": "content of the named impurity in dabigatran etexilate mesylate of Example 6 after storage in a double polyethylene bag at 40° C. and 75% relative humidity for 3 months; HPLC method 1; area % with respect to dabigatran etexilate", "procedure": "(§1) The chromatographic separation was carried out in a Kromasil 100-5C18, 5 μm, 4.6×250 mm column at 25° C. The mobile phase was prepared by filtering and degassing an acetonitrile/buffer solution (45:55) v/v mixture. The buffer solution was obtained by preparing a 50 mM formic acid solution in water and adjusting the pH to 3.8 with ammonium hydroxide. The chromatograph was equipped with a 254 nm detector and the flow rate was 1.0 mL per minute. 20 μL of the test samples were injected. The samples were prepared by dissolving the appropriate amount of sample in mobile phase, to obtain a concentration of about 1.0 mg/mL. The chromatogram was run for at least 30 min. […] Impurity contents are expressed in area % with respect to dabigatran etexilate.", "units": {"Compound/Impurity contents (area %) Example 7": "area %"}, "values": [{"smiles": "CCCCCCOC(=O)NC(=O)c1ccc(NCc2nc3cc(C(=O)N(CCC(=O)OC)c4ccccn4)ccc3n2C)cc1", "note": "[Compound (B2), methyl 3-{[(2-{[(4-{[({hexyloxy}carbonyl)amino]carbonyl}phenyl)amino]methyl}-1-methyl-1H-benzimidazol-5-yl)carbonyl](pyridin-2-yl)amino}propanoate]", "Compound/Impurity contents (area %) Example 7": 0.25}, {"smiles": "Cn1c(CNc2ccc(C(=N)N)cc2)nc2cc(C(=O)N(CCC(=O)O)c3ccccn3)ccc21", "note": "[Compound (C1), 3-{[(2-{[(4-{carbamimidoyl}phenyl)amino]methyl}-1-methyl-1H-benzimidazol-5-yl)carbonyl](pyridin-2-yl)amino}propanoic acid, reference compound]", "Compound/Impurity contents (area %) Example 7": 1.64}, {"smiles": "CCCCCCOC(=O)/N=C(/N)c1ccc(N)cc1", "note": "[Compound (D), 4-{[(hexyloxy)carbonyl]carbamimidoyl}aniline]", "Compound/Impurity contents (area %) Example 7": 0.18}, {"smiles": "CCCCCCOC(=O)/N=C(/N)c1ccc(NCc2nc3cc(C(=O)N(CCC(=O)OC)c4ccccn4)ccc3n2C)cc1", "note": "[Compound (C3), methyl 3-{[(2-{[(4-{[(hexyloxy)carbonyl]carbamimidoyl}phenyl)amino]methyl}-1-methyl-1H-benzimidazol-5-yl)carbonyl](pyridin-2-yl)amino}propanoate]", "Compound/Impurity contents (area %) Example 7": 0.32}, {"smiles": "CCCCCCOC(=O)NC(=O)c1ccc(NCc2nc3cc(C(=O)N(CCC(=O)OCC)c4ccccn4)ccc3n2C)cc1", "note": "[Compound (B3), ethyl 3-{[(2-{[(4-{[({hexyloxy}carbonyl)amino]carbonyl}phenyl)amino]methyl}-1-methyl-1H-benzimidazol-5-yl)carbonyl](pyridin-2-yl)amino}propanoate]", "Compound/Impurity contents (area %) Example 7": 7.62}, {"smiles": "CCCCCCOC(=O)NC(=O)c1ccc(NCc2nc3cc(C(=O)N(CCC(=O)O)c4ccccn4)ccc3n2C)cc1", "note": "[Compound (B1), 3-{[(2-{[(4-{[({hexyloxy}carbonyl)amino]carbonyl}phenyl)amino]methyl}-1-methyl-1H-benzimidazol-5-yl)carbonyl](pyridin-2-yl)amino}propanoic acid]", "Compound/Impurity contents (area %) Example 7": 3.8}, {"smiles": "CCCCCCOC(=O)/N=C(/N)c1ccc(NCc2nc3cc(C(=O)OCC)ccc3n2C)cc1", "note": "[Compound (A2), ethyl 2-{[(4-{[(hexyloxy)carbonyl]carbamimidoyl}phenyl)amino]methyl}-1-methyl-1H-benzimidazol-5-carboxylate]", "Compound/Impurity contents (area %) Example 7": 0.42}, {"smiles": "CCOC(=O)c1ccc2c(c1)nc(CNc1ccc(C(=N)N)cc1)n2C", "note": "[Compound (A1), ethyl 2-{[(4-{carbamimidoyl}phenyl)amino]methyl}-1-methyl-1H-benzimidazol-5-carboxylate]", "Compound/Impurity contents (area %) Example 7": 0.38}, {"smiles": "CCCCCCOC(=O)/N=C(/N)c1ccc(NCc2nc3cc(C(=O)N(CCC(=O)O)c4ccccn4)ccc3n2C)cc1", "note": "[Compound (C2), 3-{[(2-{[(4-{[(hexyloxy)carbonyl]carbamimidoyl}phenyl)amino]methyl}-1-methyl-1H-benzimidazol-5-yl)carbonyl](pyridin-2-yl)amino}propanoic acid]", "Compound/Impurity contents (area %) Example 7": 1.57}, {"smiles": "CCCCCCOC(=O)/N=C(/N)c1ccc(NCc2nc3cc(C(=O)N(CCC(N)=O)c4ccccn4)ccc3n2C)cc1", "note": "[Compound (B4), 3-{[(2-{[(4-{[(hexyloxy)carbonyl]carbamimidoyl}phenyl)amino]methyl}-1-methyl-1H-benzimidazol-5-yl)carbonyl](pyridin-2-yl)amino}propanamide]", "Compound/Impurity contents (area %) Example 7": 0.71}]}, {"assay": "Accelerated stability study of dabigatran etexilate mesylate (impurity contents by HPLC method 1)", "assay_type": "physicochemical", "settings": "on storage, 40° C. and 75% relative humidity, moisture", "procedure": "as §1", "values": [{"smiles": "CCCCCCOC(=O)NC(=N)c1ccc(NCc2nc3cc(C(=O)N(CCC(=O)OCC)c4ccccn4)ccc3n2C)cc1", "note": "[dabigatran etexilate mesylate, reference compound]", "main hydrolysis product on storage": "a compound of formula (B), especially compound (B3)"}]}, {"assay": "not given", "settings": "cited from earlier work", "values": [{"smiles": "CCCCCCOC(=O)NC(=N)c1ccc(NCc2nc3cc(C(=O)N(CCC(=O)OCC)c4ccccn4)ccc3n2C)cc1", "note": "[dabigatran etexilate mesylate, reference compound]", "main hydrolysis product in vivo": "a compound of formula (D1), namely dabigatran"}]}]}
